Data taken from article PMC10011747, “Targeting androgen receptor and the variants by an orally bioavailable Proteolysis Targeting Chimeras compound in castration resistant prostate cancer” (eBioMedicine, 2023).
Like-named read-outs stand apart in the source and are kept apart here.

Key:
Format in all cases: cell-based
LNCaP cells = test: alamarBlue cell viability, LNCaP; details: Homo sapiens, 168 h, 7 days treatment, normal hormone condition
Experimental: (§1) Cells were seeded in triplicate in 96-well plates 1 day prior to drug treatment for all assays. For viability test and IC50 assessment, the alamarBlue™ Cell Viability Reagent (Thermo Fisher Scientific) was added to cells 7 days after PROTAC treatment, followed by fluorescence detection as the manufacturer instructed. The IC50 was calculated by dose-inhibition regression. For proliferation monitoring, 2, 4, 6 and 8 days after PROTAC treatment (day 0), viable cells were detected by MTT Cell Proliferation Kit I (Sigma–Aldrich) according to the manufacturer's instructions. Cellular caspase activity was measured by Caspase-Glo 3/7 Assay System (Promega) 1 or 2 days after the drug treatment.

VCaP cells = test: alamarBlue cell viability, VCaP; details: Homo sapiens, 168 h, 7 days treatment, normal hormone condition
Experimental: as §1

AR-V7 = biological target: T1, AR-V7 (Homo sapiens, UniProt P10275); test: AR-V7 degradation by western blot (AR-V7 specific antibody); details: for DC50: 24 h treatment; for Dmax at 20 µM: maximum degradation at 20 μM
T1 construct: endogenous in cells; host or cells: CWR22Rv1, VCaP
T1 sequence (P10275 1-644 isoform P10275-3): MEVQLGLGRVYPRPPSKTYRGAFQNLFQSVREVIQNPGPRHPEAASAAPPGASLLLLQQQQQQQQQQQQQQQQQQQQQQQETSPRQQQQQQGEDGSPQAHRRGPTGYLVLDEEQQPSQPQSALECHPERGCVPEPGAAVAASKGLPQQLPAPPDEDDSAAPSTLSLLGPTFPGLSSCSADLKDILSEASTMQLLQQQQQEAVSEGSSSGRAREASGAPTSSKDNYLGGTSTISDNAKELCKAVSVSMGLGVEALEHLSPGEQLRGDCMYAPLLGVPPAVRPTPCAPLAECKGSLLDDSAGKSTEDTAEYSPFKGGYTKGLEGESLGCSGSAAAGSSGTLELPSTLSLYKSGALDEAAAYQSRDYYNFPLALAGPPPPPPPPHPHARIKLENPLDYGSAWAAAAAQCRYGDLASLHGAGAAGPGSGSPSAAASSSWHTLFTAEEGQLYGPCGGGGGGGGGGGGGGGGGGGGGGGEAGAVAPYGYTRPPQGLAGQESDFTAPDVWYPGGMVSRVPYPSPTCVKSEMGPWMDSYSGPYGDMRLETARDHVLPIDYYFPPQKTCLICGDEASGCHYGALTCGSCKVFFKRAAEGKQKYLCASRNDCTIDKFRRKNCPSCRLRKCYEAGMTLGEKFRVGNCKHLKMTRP
Experimental: To obtain total lysates, cells were lysed in RIPA buffer (50 mM Tris–HCl pH 8.0, 150 mM NaCl, 1% NP-40, 0.5% Na-deoxycholate, 0.5% SDS plus protease inhibitors). The lysates were resolved by SDS-polyacrylamide gel electrophoresis, and the protein expression was analyzed by western blotting using primary antibodies against AR (Millipore Cat# 06-680, RRID:AB_310214), AR-V7 (RevMAb Biosciences Cat# 31-1109-00, RRID:AB_2716436), GAPDH (Cell Signaling Technology Cat# 2118, RRID:AB_561053) and Actin (Sigma–Aldrich Cat# A5441, RRID:AB_476744). pLenti4/TO/Flag-AR or pLenti4/TO/Flag-TC-AR plasmid was co-transfected with HA-ubiquitin plasmid into 293T cells. 24 h after transfection, the cells were treated with 10 μM of the PROTAC compounds for 16 h, followed by 4-h treatment of 5 μM MG132. The cells were lysed with lysis buffer (50 mM Tris–HCl pH7.5, 150 mM NaCl, 0. 5% Triton X-100, 10% glycerol, 1 mM EDTA plus protease inhibitors) containing 1 ng/mL of N-ethylmaleimide, followed by immunoprecipitation with anti-Flag M2 (Sigma–Aldrich Cat# F3165, RRID:AB_259529) antibody. The ubiquitinated AR was then detected by western blotting using anti-HA (Sigma–Aldrich Cat# H3663, RRID:AB_262051) antibody.
Fig. 1 PROTAC-based AR degraders ITRI-90, ITRI-125 and ITRI-126 reduce AR and AR-V7 proteins in prostate cancer cell lines. (a) Chemical structure of the PROTAC AR degraders. (b) Representative western blots of AR protein levels in LNCaP, CWR22Rv1 and VCaP cells treated with the PROTAC degraders for 24 h. AR was detected by N-terminal antibody which also detects C-terminal truncated AR-V(ΔLBD) in CWR22Rv1 cells. AR-V7 specific antibody was used for AR-V7 detection. 4%–12% gradient gel was used to separate different species of AR-V(ΔLBD) near 75 kDa in CWR22Rv1 cell lysates. DC50 indicating the concentration required to achieve 50% degradation, was calculated based on normalized full-length AR and AR-V7 band intensity. Dmax is the maximum degradation achieved at 20 μM compound treatment. TEXT PRINTED IN THE PICTURE: (a) ITRI-90: AR DC50 (μM) LNCaP: 2.12 ± 0.93; AR DC50 (μM) CWR22Rv1: 5.73 ± 2.28; AR DC50 (μM) VCaP: 8.67 ± 4.87; AR-V7 DC50 (μM) CWR22Rv1: 4.72 ± 2.52; AR-V7 DC50 (μM) VCaP: 0.29 ± 0.15; AR Dmax (%) LNCaP: 88; AR Dmax (%) CWR22Rv1: 98; AR Dmax (%) VCaP: 90; AR-V7 Dmax (%) CWR22Rv1: 100; AR-V7 Dmax (%) VCaP: 63 | (a) ITRI-125: AR DC50 (μM) LNCaP: 6.10 ± 4.43; AR DC50 (μM) CWR22Rv1: 6.64 ± 1.87; AR DC50 (μM) VCaP: 9.05 ± 3.75; AR-V7 DC50 (μM) CWR22Rv1: 1.89 ± 1.06; AR-V7 DC50 (μM) VCaP: 0.52 ± 0.37; AR Dmax (%) LNCaP: 71; AR Dmax (%) CWR22Rv1: 96; AR Dmax (%) VCaP: 85; AR-V7 Dmax (%) CWR22Rv1: 99; AR-V7 Dmax (%) VCaP: 67 | (a) ITRI-126: AR DC50 (μM) LNCaP: 3.41 ± 3.13; AR DC50 (μM) CWR22Rv1: 0.11 ± 0.02; AR DC50 (μM) VCaP: 0.851 ± 0.43; AR-V7 DC50 (μM) CWR22Rv1: 0.011 ± 0.003; AR-V7 DC50 (μM) VCaP: 0.43 ± 0.19; AR Dmax (%) LNCaP: 99; AR Dmax (%) CWR22Rv1: 74; AR Dmax (%) VCaP: 94; AR-V7 Dmax (%) CWR22Rv1: 91; AR-V7 Dmax (%) VCaP: 82

[1] = CWR22Rv1 cells, read-out: AR-V7 DC50 CWR22Rv1
[2] = CWR22Rv1 cells, read-out: AR-V7 Dmax CWR22Rv1
[3] = VCaP cells, read-out: AR-V7 DC50 VCaP
[4] = VCaP cells, read-out: AR-V7 Dmax VCaP

Row | Structure (SMILES) | IC50 (LNCaP cells) [nM] | IC50 (VCaP cells) [nM] | DC50 (AR-V7; [1]) [nM] | Dmax at 20 µM (AR-V7; [2]) [%] | DC50 (AR-V7; [3]) [nM] | Dmax at 20 µM (AR-V7; [4]) [%]
1 | Cc1ncsc1-c1ccc(CNC(=O)[C@@H]2C[C@H](O)CN2C(=O)[C@@H](NC(=O)COCCCCOc2ccc(C3CCN(C4=Nn5c(nnc5C(F)(F)F)CC4)CC3)cc2)C(C)(C)C)cc1 [ITRI-90, (2S,4S)-1-((S)-3,3-dimethyl-2-(2-(4-(4-(1-(3-(trifluoromethyl)-7,8-dihydro-[1,2,4]triazolo[4,3-b]pyridazin-6-yl)piperidin-4-yl)phenoxy)butoxy)acetamido)butanoyl)-4-hydroxy-N-(4-(4-methylthiazol-5-yl)benzyl)pyrrolidine-2-carboxamide] | 6590 ± 3130 | 5450 ± 1740 | 4720 ± 2520 | 100 | 290 ± 150 | 63
2 | Cc1ncsc1-c1ccc(CNC(=O)[C@@H]2C[C@H](O)CN2C(=O)[C@@H](NC(=O)COCCCCCCOc2ccc(C3CCN(C4=Nn5c(nnc5C(F)(F)F)CC4)CC3)cc2)C(C)(C)C)cc1 [ITRI-125, (2S,4S)-1-((S)-3,3-dimethyl-2-(2-(6-(4-(1-(3-(trifluoromethyl)-7,8-dihydro-[1,2,4]triazolo[4,3-b]pyridazin-6-yl)piperidin-4-yl)phenoxy)hexyloxy)acetamido)butanoyl)-4-hydroxy-N-(4-(4-methylthiazol-5-yl)benzyl)pyrrolidine-2-carboxamide] | 6360 ± 2100 | 3060 ± 936 | 1890 ± 1060 | 99 | 520 ± 370 | 67
3 | O=C1CCC(N2Cc3c(NC(=O)COCCCCOc4ccc(C5CCN(C6=Nn7c(nnc7C(F)(F)F)CC6)CC5)cc4)cccc3C2=O)C(=O)N1 (stereo not drawn) [ITRI-126, N-(2-(2,6-dioxopiperidin-3-yl)-1-oxoisoindolin-4-yl)-2-(4-(4-(1-(3-(trifluoromethyl)-7,8-dihydro-[1,2,4]triazolo[4,3-b]pyridazin-6-yl)piperidin-4-yl)phenoxy)butoxy)acetamide] | 464 ± 93 | 448 ± 154 | 11 ± 3 | 91 | 430 ± 190 | 82
